Source: the supplement of paper PMC11061612

Key:
[1] = compound: CCN(CCO)CCCOc1ccc2c(Nc3cc(CC(=O)Nc4cccc(F)c4)[nH]n3)ncnc2c1 [AZD2811]; details: max 1 µM
Outline: (§1)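 Plates with 1536 wells received cancer cell lines in 7.5 μl of DMEM/F12 or RPMI containing 10% FBS. After 24 hours at 37°C and 5% CO2, cells were dosed for 72 hours with final DMSO typically 0.2%, and viability was read by CellTiter-Glo 2.0 luminescence scaled between blank-well and DMSO-well means. The single-agent IC50 was taken from a logistic fit of the dose responses made with a non-linear mixed effects model, that logistic curve having two parameters.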

[2] = compound: CC(=O)c1c(C)c2cnc(Nc3ccc(N4CCNCC4)cn3)nc2n(C2CCCC2)c1=O [Palbociclib]; details: max 10 µM
Outline: as §1

[3] = compound: C[C@@H](Oc1cc(-c2cnn(C3CCNCC3)c2)cnc1N)c1c(Cl)ccc(F)c1Cl [Crizotinib]; details: max 10 µM
Outline: as §1

[4] = compound: COc1cc2ncnc(Nc3ccc(F)c(Cl)c3)c2cc1OCCCN1CCOCC1 [Gefitinib]; details: max 10 µM
Outline: as §1

[5] = compound: C[C@@H](c1ccc2nccn2c1)n1nnc2ncc(-c3cnn(C)c3)nc21 [Savolitinib]; details: max 1 µM
Outline: as §1

[6] = compound: CC1(C)CCC(CN2CCN(c3ccc(C(=O)NS(=O)(=O)c4ccc(NCC5CCOCC5)c([N+](=O)[O-])c4)c(Oc4cnc5[nH]ccc5c4)c3)CC2)=C(c2ccc(Cl)cc2)C1 [Venetoclax]; details: max 1 µM
Outline: as §1

[7] = compound: CC(=O)O[C@H]1C(=O)[C@@]2(C)[C@H]([C@H](OC(=O)c3ccccc3)[C@]3(O)C[C@H](OC(=O)[C@H](O)[C@@H](NC(=O)c4ccccc4)c4ccccc4)C(C)=C1C3(C)C)[C@]1(OC(C)=O)CO[C@@H]1C[C@@H]2O [Paclitaxel]; details: max 3 µM
Outline: as §1

[8] = compound: C=CCn1c(=O)c2cnc(Nc3ccc(N4CCN(C)CC4)cc3)nc2n1-c1cccc(C(C)(C)O)n1 [AZD1775]; details: max 3 µM
Outline: as §1

[9] = compound: CC(C)n1c(=O)n(C)c2cnc3cc(F)c(-c4ccc(OCCCN5CCCCC5)nc4)cc3c21 [AZD1390]; details: max 0.3 µM
Outline: as §1

[10] = compound: C[C@@H]1COCCN1C2=NC(=NC(=C2)C3(CC3)[S@](=N)(=O)C)C4=C5C=CNC5=NC=C4 [AZD6738]; details: max 10 µM
Outline: as §1

[11] = compound: Cc1nc(-c2cn3c(n2)-c2ccc(-c4cnn(C(C)(C)C(N)=O)c4)cc2OCC3)n(C(C)C)n1 [Taselisib]; details: max 10 µM
Outline: as §1

[12] = compound: Cc1c2c(nn1C)CSCc1cc(n(C)n1)CSc1cc(c3ccccc3c1)OCCCc1c(C(=O)O)n(C)c3c-2c(Cl)ccc13 [AZD5991]; details: max 1 µM
Outline: as §1

[13] = compound: Cc1cc2ncnn2cc1Nc1ncc2c(n1)n(C1CCOCC1)c(=O)n2C [AZD7648]; details: max 10 µM
Outline: as §1

[14] = compound: CCc1c2c(nc3ccc(O)cc13)-c1cc3c(c(=O)n1C2)COC(=O)[C@]3(O)CC [SN-38]; details: max 0.3 µM
Outline: as §1

[15] = compound: NC1(c2ccc(-c3nc4ccn5c(=O)[nH]nc5c4cc3-c3ccccc3)cc2)CCC1 [MK-2206]; details: max 10 µM
Outline: as §1

[16] = compound: O=C(c1cc(Cc2n[nH]c(=O)c3ccccc23)ccc1F)N1CCN(C(=O)C2CC2)CC1 [Olaparib]; details: max 10 µM
Outline: as §1

[17] = compound: Nc1ccn([C@@H]2O[C@H](CO)[C@@H](O)C2(F)F)c(=O)n1 [Gemcitabine]; details: max 0.3 µM
Outline: as §1

[18] = compound: CC(=O)Nc1cccc(-n2c(=O)n(C3CC3)c(=O)c3c(Nc4ccc(I)cc4F)n(C)c(=O)c(C)c32)c1 [Trametinib]; details: max 1 µM
Outline: as §1

[19] = compound: CN(CC[C@H](CSC1=CC=CC=C1)NC2=C(C=C(C=C2)S(=O)(=O)NC(=O)C3=CC=C(C=C3)N4CCC(CC4)[C@H](C5=CC=CC=C5C6=CC=C(C=C6)Cl)O)S(=O)(=O)C(F)(F)F)CCO [AZD4320]; details: max 1 µM
Outline: as §1

[20] = compound: COc1cccc(OCCCN)c1-c1cc(Nc2cnc(C#N)cn2)n[nH]1 [Prexasertib]; details: max 1 µM
Outline: as §1

[21] = compound: Cn1cnc2c(F)c(Nc3ccc(Br)cc3Cl)c(C(=O)NOCCO)cc21 [Selumetinib]; details: max 10 µM
Outline: as §1

[22] = compound: O=C(Nc1ccc2[nH]nc(-c3ccncc3)c2c1)[C@@H]1CCN(CC(=O)N2CCN(c3ccc(-c4ncccn4)cc3)CC2)C1; details: max 5 µM
Outline: as §1

[23] = compound: CS(=O)(=O)CCNCc1ccc(-c2ccc3ncnc(Nc4ccc(OCc5cccc(F)c5)c(Cl)c4)c3c2)o1 [Lapatinib]; details: max 10 µM
Outline: as §1

[24] = compound: COc1cc(Nc2ncc3c(n2)-c2ccc(Cl)cc2C(c2c(F)cccc2OC)=NC3)ccc1C(=O)O [Alisertib]; details: max 10 µM
Outline: as §1

[25] = compound: CN(C)CCCOc1ccc(-c2ccc3ncc4c(c3c2)n(C2CCOCC2)c(=O)n4C)cn1 [AZD0156]; details: max 3 µM
Outline: as §1

[26] = compound: C1CN(CCC1(C(=O)N[C@@H](CCO)C2=CC=C(C=C2)Cl)N)C3=NC=NC4=C3C=CN4 [AZD5363]; details: max 10 µM
Outline: as §1

[27] = compound: COc1nnc2ccc(N3CCC(c4ccc(OCCN5CCN(C)C(=O)[C@H]5C)cc4)CC3)nn12 [AZD5153]; details: max 1 µM
Outline: as §1

[28] = compound: C1CC(C1)(C(=O)[O-])C(=O)[O-].N.N.[Pt+2] [Carboplatin]; details: max 10 µM
Outline: as §1

[29] = compound: C[C@@H](Nc1cc(F)cc(F)c1)c1cc(C(=O)N(C)C)cc2c(=O)cc(N3CCOCC3)oc12 [AZD8186]; details: max 10 µM
Outline: as §1

[30] = compound: COc1cc([C@@H]2c3cc4c(cc3[C@@H](O[C@@H]3O[C@@H]5CO[C@@H](C)O[C@H]5[C@H](O)[C@H]3O)[C@H]3COC(=O)[C@H]23)OCO4)cc(OC)c1O [Etoposide]; details: max 10 µM
Outline: as §1

[31] = compound: COc1cccc2c1C(=O)c1c(O)c3c(c(O)c1C2=O)C[C@@](O)(C(=O)CO)C[C@@H]3O[C@H]1C[C@H](N)[C@H](O)[C@H](C)O1 [Doxorubicin]; details: max 1 µM
Outline: as §1

[32] = compound: N#Cc1cnc(Nc2cc(NC[C@H]3CNCCO3)c(C(F)(F)F)cn2)cn1 [SRA737]; details: max 10 µM
Outline: as §1

[33] = compound: CC1=CN2[C@@H](C1)C=NC3=CC(=C(C=C3C2=O)OC)OCCCCCOC4=C(C=C5C(=C4)N=C[C@@H]6CC(=CN6C5=O)C)OC [SG3199]; details: max 0.001 µM
Outline: as §1

[34] = compound: CC1=C(C(=CC=C1)Cl)NC(=O)C2=CN=C(S2)NC3=CC(=NC(=N3)C)N4CCN(CC4)CCO [Dasatinib]; details: max 2 µM
Outline: as §1

[35] = compound: O=c1[nH]cc(F)c(=O)[nH]1 [5-Fluorouracil]; details: max 20 µM
Outline: as §1

Cell Line | IC50, cell viability 72 h [1] | IC50, cell viability 72 h [2] | IC50, cell viability 72 h [3] | IC50, cell viability 72 h [4] | IC50, cell viability 72 h [5] | IC50, cell viability 72 h [6] | IC50, cell viability 72 h [7] | IC50, cell viability 72 h [8] | IC50, cell viability 72 h [9] | IC50, cell viability 72 h [10] | IC50, cell viability 72 h [11] | IC50, cell viability 72 h [12] | IC50, cell viability 72 h [13] | IC50, cell viability 72 h [14] | IC50, cell viability 72 h [15] | IC50, cell viability 72 h [16] | IC50, cell viability 72 h [17] | IC50, cell viability 72 h [18] | IC50, cell viability 72 h [19] | IC50, cell viability 72 h [20] | IC50, cell viability 72 h [21] | IC50, cell viability 72 h [22] | IC50, cell viability 72 h [23] | IC50, cell viability 72 h [24] | IC50, cell viability 72 h [25] | IC50, cell viability 72 h [26] | IC50, cell viability 72 h [27] | IC50, cell viability 72 h [28] | IC50, cell viability 72 h [29] | IC50, cell viability 72 h [30] | IC50, cell viability 72 h [31] | IC50, cell viability 72 h [32] | IC50, cell viability 72 h [33] | IC50, cell viability 72 h [34] | IC50, cell viability 72 h [35]
SK-GT-4 (Esophageal Adenocarcinoma) | > 1000 nM | > 10000 nM | > 10000 nM | > 10000 nM | > 1000 nM | > 1000 nM | 945 nM | > 3000 nM | > 300 nM | > 10000 nM | 911 nM | > 1000 nM | > 10000 nM | > 300 nM | > 10000 nM | > 10000 nM | > 300 nM | 90.1 nM | > 1000 nM | 70.7 nM | 6050 nM | 4610 nM | > 10000 nM | > 10000 nM | > 3000 nM | > 10000 nM | > 1000 nM | > 10000 nM | > 10000 nM | > 10000 nM | > 1000 nM | > 10000 nM | > 1 nM | 1500 nM | > 20000 nM
NCI-H526 (Small Cell Lung Carcinoma) | > 1000 nM | > 10000 nM | 7940 nM | > 10000 nM | > 1000 nM | 246 nM | 9.08 nM | 642 nM | > 300 nM | 10000 nM | > 10000 nM | > 1000 nM | > 10000 nM | 2.57 nM | > 10000 nM | > 10000 nM | 251 nM | > 1000 nM | 43.4 nM | 83.8 nM | > 10000 nM | > 5000 nM | > 10000 nM | 9420 nM | > 3000 nM | > 10000 nM | 80.1 nM | > 10000 nM | > 10000 nM | 713 nM | 107 nM | > 10000 nM | > 1 nM | > 2000 nM | 12800 nM
ST486 (Burkitt's Lymphoma) | 31.9 nM | > 10000 nM | 739 nM | > 10000 nM | > 1000 nM | > 1000 nM | 8.5 nM | 320 nM | > 300 nM | 2000 nM | > 10000 nM | 71 nM | > 10000 nM | 80.9 nM | > 10000 nM | > 10000 nM | 15.9 nM | > 1000 nM | 134 nM | 7.33 nM | 8880 nM | 4790 nM | > 10000 nM | 40 nM | > 3000 nM | > 10000 nM | 64.9 nM | > 10000 nM | > 10000 nM | 1180 nM | 773 nM | 968 nM | > 1 nM | 220 nM | > 20000 nM
DMS-114 (Small Cell Lung Carcinoma) | > 1000 nM | > 10000 nM | > 10000 nM | > 10000 nM | > 1000 nM | > 1000 nM | 132 nM | > 3000 nM | > 300 nM | > 10000 nM | 5190 nM | 782 nM | > 10000 nM | 230 nM | > 10000 nM | > 10000 nM | > 300 nM | > 1000 nM | > 1000 nM | > 1000 nM | > 10000 nM | > 5000 nM | > 10000 nM | > 10000 nM | > 3000 nM | > 10000 nM | 688 nM | > 10000 nM | > 10000 nM | > 10000 nM | > 1000 nM | > 10000 nM | > 1 nM | > 2000 nM | > 20000 nM
KU812 (Chronic Myelogenous Leukemia) | 471 nM | 4050 nM | 260 nM | > 10000 nM | > 1000 nM | > 1000 nM | 17.6 nM | 298 nM | > 300 nM | 2150 nM | > 10000 nM | 235 nM | > 10000 nM | 37.4 nM | 4070 nM | > 10000 nM | 27.1 nM | 10.5 nM | 267 nM | 20.5 nM | 260 nM | 160 nM | > 10000 nM | 701 nM | > 3000 nM | > 10000 nM | 36.6 nM | > 10000 nM | > 10000 nM | 9690 nM | 567 nM | 9860 nM | > 1 nM | < 2 nM | > 20000 nM
